The values below come from PMC7096528, “Crystal structure of pathogenic Staphylococcus aureus lipase complex with the anti-obesity drug orlistat” (Scientific Reports, 2020).

Series [1] concerns the target T1, Staphylococcus aureus lipase (SAL, glycerol ester hydrolase) (Staphylococcus aureus, UniProt A0A0U1MWF9).
T1 construct: gene lip; mature form containing 394 amino acid residues (recombinant, His-tagged; residues 4–385 determined in the native structure)
As to the kind of experiment: co-crystal structure at […] Å; IC50 from purified-enzyme p-nitrophenyl butyrate hydrolysis assay. It is filed as biochemical.

Series [2] deals with the molecule itself. As to the kind of experiment: SEC; Superdex 200 Increase 10/300 GL, 10 mg/mL SAL injected at 20 °C, 50 mM Tris-HCl pH 7.5, 0.2 M NaCl, 0.5 ml/min, BSA as standard for calibration. (Size exclusion chromatography separates by hydrodynamic size, large species first.)

T1 sequence (A0A0U1MWF9 entry or part of it): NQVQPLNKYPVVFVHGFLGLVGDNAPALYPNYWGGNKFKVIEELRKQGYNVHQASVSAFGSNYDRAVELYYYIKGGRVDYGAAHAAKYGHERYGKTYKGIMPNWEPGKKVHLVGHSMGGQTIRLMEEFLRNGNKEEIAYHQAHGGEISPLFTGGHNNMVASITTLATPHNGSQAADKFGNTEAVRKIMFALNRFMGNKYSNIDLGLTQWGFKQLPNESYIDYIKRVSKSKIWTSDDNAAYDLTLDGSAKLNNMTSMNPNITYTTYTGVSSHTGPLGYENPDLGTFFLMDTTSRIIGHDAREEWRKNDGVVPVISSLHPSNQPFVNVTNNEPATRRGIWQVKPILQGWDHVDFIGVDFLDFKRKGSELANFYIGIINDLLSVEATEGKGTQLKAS

By IC50 is commonly meant the midpoint of a concentration-inhibition curve. A higher IC50 goes with weaker potency. Turning to `CCCCCCCCCCC[C@@H](C[C@@H]1OC(=O)[C@H]1CCCCCC)OC(=O)[C@H](CC(C)C)NC=O` [orlistat], the IC50 in series [1] turned out to be 2.4 µM.

B1: Staphylococcus aureus lipase (SAL), native, mature form (enzyme)
chain: ANQVQPLNKYPVVFVHGFLGLVGDNAPALYPNYWGGNKFKVIEELRKQGYNVHQASVSAFGSNYDRAVELYYYIKGGRVDYGAAHAAKYGHERYGKTYKGIMPNWEPGKKVHLVGHSMGGQTIRLMEEFLRNGNKEEIAYHKAHGGEISPLFTGGHNNMVASITTLATPHNGSQAADKFGNTEAVRKIMFALNRFMGNKYSNIDLGLTQWGFKQLPNESYIDYIKRVSKSKIWTSDDNAAYDLTLDGSAKLNNMTSMNPNITYTTYTGVSSHTGPLGYENPDLGTFFLMATTSRIIGHDAREEWRKNDGVVPVISSLHPSNQPFVNVTNDEPATRRGIWQVKPIIQGWDHVDFIGVDFLDFKRKGAELANFYTGIINDLLRVEATESKGTQLKAS
notes: Staphylococcus aureus lipase (glycerol ester hydrolase), mature form of 394 residues processed from the prepolypeptide of 690 residues; numbers count on: the mature protein; Residues 4-385 are visible in the crystal; The pCold II vector is surmised to add the His tag at the N-terminus; also called SA lipase; glycerol ester hydrolase; source: E. coli, purified (three-step chromatography, …)
The term stoichiometry N denotes a count of units in the complex or per binding partner. Turning to B1, the “stoichiometry N” value in series [2] came out at 2.
